{"source": "patent US10882883B2", "about": "“Derivatives of amphotericin B” (Sfunga Therapeutics, Inc., priority 2015, dated 2021)", "origin": "cited, not measured here", "key": {"[1]": {"system": "yeast", "settings": "in vitro studies; WO 2014/165676"}, "[2]": {"settings": "Wilcock et al., J Am Chem Soc 135: 8488-91 (2013)"}, "[3]": {"settings": "Wilcock et al., J Am Chem Soc 135: 8488-91 (2013)", "remark": "listed apart in the source"}}, "data": [{"compound": "CC1C=CC=CC=CC=CC=CC=CC=CC(OC2CC(N)C(O)C(C)O2)CC2OC(O)(CC(O)CC(O)C(O)CCC(O)CC(O)CC(=O)OC(C)C(C)C1O)CC(O)C2C(=O)O", "note": "(stereo not drawn) [C2′deOAmB]", "values": [{"measurement": "toxicity to yeast", "setting": "[1]", "value": "toxic to yeast"}, {"measurement": "ergosterol-binding ability", "setting": "[2]", "value": "retains ergosterol-binding ability"}, {"measurement": "binding to cholesterol", "setting": "[3]", "value": "no binding to cholesterol"}]}]}
